Relative viability data for one cell line are collected here from the supplement of paper PMC10307832.

Test in all cases: relative viability (nuclei count vs DMSO), 5 days (fraction); higher = more cells survive
Compound in assay [1]: CC1=CC=C(C=C1)C(=O)CN2C3=C(CCCC3)SC2=N [Pifithrin_alpha] + COc1cccc2cc(-c3nc([C@H]4CC[C@H](C(=O)O)CC4)n4ncnc(N)c34)[nH]c12 [OSI-027] (partner 0.5 µM)
In short, it runs like this: (§1)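 Each reported value is a median over duplicate plates. It expresses relative viability: treated-well nuclei count divided by vehicle-well nuclei count. Lung cancer cell lines in 1536-well plates were dosed by pin tool a day after seeding, alone with one drug or with a fixed anchor-drug dose plus five library-drug doses (not always all listed) in √10 steps, and nuclei were counted after 5 days.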

Compound in the assay “Axitinib + AZD7762”: CNC(=O)c1ccccc1Sc1ccc2c(/C=C/c3ccccn3)n[nH]c2c1 [Axitinib] + NC(=O)Nc1cc(-c2cccc(F)c2)sc1C(=O)N[C@H]1CCCNC1 [AZD7762] (partner 0.2 µM)
In short, it runs like this: as §1

Compound in the assay “Bemcentinib + Pictilisib”: Nc1nc(Nc2ccc3c(c2)CC[C@@H](N2CCCC2)CC3)nn1-c1cc2c(nn1)-c1ccccc1CCC2 [Bemcentinib] + CS(=O)(=O)N1CCN(Cc2cc3nc(-c4cccc5[nH]ncc45)nc(N4CCOCC4)c3s2)CC1 [Pictilisib] (partner 1 µM)
In short, it runs like this:
as §1

Compound in the assay “Bemcentinib + Linsitinib”: Nc1nc(Nc2ccc3c(c2)CC[C@@H](N2CCCC2)CC3)nn1-c1cc2c(nn1)-c1ccccc1CCC2 [Bemcentinib] + C[C@]1(O)C[C@@H](c2nc(-c3ccc4ccc(-c5ccccc5)nc4c3)c3c(N)nccn32)C1 [Linsitinib] (partner 1 µM)
In a few lines:
as §1

As to NCI-H650, the relative viability in assay [1] (first compound 3.162 µM) was 0.51; in assay [1] (first compound 10 µM), 0.582; in assay [1] (first compound 31.62 µM), 0.489; in assay [1] (first compound 100 µM) it was 0.427; with Axitinib + AZD7762 (first compound 0.005 µM), 1.08; with Axitinib + AZD7762 (first compound 0.01581 µM), 0.978. Further, the relative viability with Axitinib + AZD7762 (first compound 0.05 µM) came to 1.08; with Axitinib + AZD7762 (first compound 0.1581 µM) it was 1.11; with Axitinib + AZD7762 (first compound 0.5 µM) it was 0.862; with Bemcentinib + Pictilisib (first compound 0.04 µM), 0.835; with Bemcentinib + Pictilisib (first compound 0.1265 µM) it was 1.08; in the assay with Bemcentinib + Pictilisib (first compound 0.4 µM), 0.887. In addition, the relative viability came to 0.766 with Bemcentinib + Pictilisib (first compound 1.265 µM); 0.827 with Bemcentinib + Pictilisib (first compound 4 µM); 0.976 in the assay with Bemcentinib + Linsitinib (first compound 0.04 µM); 0.982 in the assay with Bemcentinib + Linsitinib (first compound 0.1265 µM); 0.974 with Bemcentinib + Linsitinib (first compound 0.4 µM); 0.823 with Bemcentinib + Linsitinib (first compound 1.265 µM). Moreover, the relative viability with Bemcentinib + Linsitinib (first compound 4 µM) is 0.774.
